Measured values as given in patent US10391066B2, “Compositions and methods for the treatment of Parkinson's disease” (Texas Tech University System, priority 2012, dated 2019).

Tests used:
[1] = system: C57/B16 Mice mouse model of Parkinson's disease; assay: Paraquat mouse model of Parkinson's disease, brain immunohistochemistry (FIG. 5); format: in vivo
rPP2A = rPP2A (Homo sapiens, UniProt P67775); assay: recombinant PP2A (rPP2A) activity with FTY720 compounds; format: biochemical; conditions: versus rPP2A alone; for effect on rPP2A activity: across tested concentrations
Chain of rPP2A (P67775 whole entry): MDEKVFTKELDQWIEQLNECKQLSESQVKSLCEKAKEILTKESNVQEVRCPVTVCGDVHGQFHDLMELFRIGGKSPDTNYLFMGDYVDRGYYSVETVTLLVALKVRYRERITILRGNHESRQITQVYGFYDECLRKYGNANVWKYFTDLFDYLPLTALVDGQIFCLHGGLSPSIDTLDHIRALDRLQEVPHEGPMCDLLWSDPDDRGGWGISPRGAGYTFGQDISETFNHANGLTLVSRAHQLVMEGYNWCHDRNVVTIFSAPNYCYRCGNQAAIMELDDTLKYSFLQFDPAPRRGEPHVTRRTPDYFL

PP2A [2] = assay: PP2A activity, cellular assay (FIG. 4B); format: cell-based
S1P receptors = conditions: with the exception of S1P2; cited from earlier work
[3] = system: BDNF expression in neurons; assay: BDNF trophic factor expression in neurons (FIG. 6); format: cell-based
PP2A [4] = target: T1, PP2A (Homo sapiens, UniProt P67775); assay: PP2A activity, cell free assay (FIG. 4A); format: biochemical
T1 sequence (P67775 whole entry): as above

[5] = system: control and mutant A53T Syn PD mice; assay: Anxiety levels in control and mutant A53T Syn PD mice (FIG. 7B); format: in vivo, mouse
PP2A [6] = target: T1, PP2A; assay: PP2A activity in response to ceramides and FTY720 compounds (FIG. 8); format: biochemical; conditions: for PP2A activity in response to compounds: FIG. 8B, C2 ceramide as internal control; for PP2A activity in response to Ceramides: FIG. 8A
[7] = system: control and mutant A53T Syn PD mice; assay: Grip strength in control and mutant A53T Syn PD mice (FIG. 7A); format: in vivo, mouse; conditions: 5 month old mice, FTY720 twice a week for 14 weeks versus vehicle
[8] = system: PP2A in mouse adrenal gland; assay: PP2A activity in mouse adrenal gland after single dosing (FIG. 9B, 9D, 9F); format: in vivo; conditions: for effect on PP2A in mouse adrenal gland, IV delivery: single dose (FIG. 9D, 9F)

| PP2A activity in response to Ceramides (PP2A [6]) | Compound | effect on rPP2A activity at 10 uM (rPP2A) | effect on rPP2A activity (rPP2A) | agonism of S1P receptors (S1P receptors) | PP2A activity in response to compounds (PP2A [6]) | effect on PP2A in mouse adrenal gland, IV delivery [8] | also measured |
| --- | --- | --- | --- | --- | --- | --- | --- |
| – | CCCCCCCCc1ccc(CCC(N)(CO)CO)cc1 [FTY720, 2-amino-2-[2-(4-octylphenyl)ethyl]-1,3-propanediol] | not significantly greater than rPP2A alone | increases rPP2A activity more at lower concentrations than at higher concentrations | potent agonists of S1P receptors with the exception of S1P2 | significantly stimulate PP2A activity | – | Paraquat toxicity ([1]; C57/B16 mice, FTY720 given before paraquat (PQ)): blocks Paraquat Toxicity; paraquat-stimulated increase in Syn in dopamine neurons ([1]; PQ given after FTY720, immunohistochemistry, TH-labelled neurons): blocks the increase in Syn; neuroinflammation as measured by microglial Ibal staining ([1]; adjacent tissue section): reduces neuroinflammation; PP2A activity, cellular (PP2A [2]): stimulates PP2A activity; BDNF expression at the message level ([3]; neurons (FIG. 6B)): increased BDNF expression at the message level; BDNF at the protein level ([3]; neurons treated with FTY720, blot (FIG. 6A)): increased BDNF at the protein level; PP2A activity, cell free (PP2A [4]): stimulates PP2A activity; anxiety levels [5]: reduces anxiety levels; mouse grip strength [7]: improves mouse grip strength |
| – | CCCCCCCCc1ccc(CCC(N)(CO)COP(=O)(O)O)cc1 (stereo not shown) [FTY720-P, 2-amino-2-[2-(4-octylphenyl)ethyl]propane-1,3-diol phosphate] | – | – | potent agonists of S1P receptors with the exception of S1P2 | – | – | – |
| – | CCCCCCCCc1ccc(CCC(CO)(CO)NC(C)=O)cc1 [FTY720-C2, N-(1-hydroxy-2-(hydroxymethyl)-4-(4-octylphenyl)butan-2-yl)ethanamide] | – | biggest effect | – | significantly stimulate PP2A activity | stimulatory effects | effect on PP2A in mouse adrenal gland, oral delivery ([8]; gavage, single dose (FIG. 9B)): stimulatory effects |
| – | CCCCCCCCc1ccc(CCC(CO)(CO)NC(=O)CC[P+](c2ccccc2)(c2ccccc2)c2ccccc2)cc1 [FTY720-Mitoxy, (3-(1-hydroxy-2-(hydroxymethyl)-4-(4-octylphenyl)butan-2-ylamino)-3-oxopropyl) triphenyl phosphonium bromide] | significant inhibitory effect | moderate effect | – | significantly stimulate PP2A activity | stimulatory effects | – |
| able to stimulate PP2A activity | CCCCCCCCCCCCC/C=C/[C@@H](O)[C@H](CO)NC(C)=O [C2 ceramide] | – | – | – | significantly stimulate PP2A activity | – | – |
| able to stimulate PP2A activity | CCCCCCCCCCCCCC=CC(O)C(CO)NC(=O)CCCCC (stereo not shown) [Ceramide C6] | – | – | – | – | – | – |
